Patent US20080255121A1, “Combination Drug for Treating Autoimmune Disease” (DAINIPPON SUMITOMO PHARMA CO., LTD., priority 2004, published 2008)

Tests used:
[1] = system: J774A.1 cells; assay: IL-6 production when macrophages were stimulated with LPS; assay type: cell-based, mouse; conditions: Compound (I) 1 to 30 μM, KN-93 1 to 3 μM; 24 hours; FIG. 2
Description: Effects of Compound (I) and KN-93 on IL-6 production when macrophages were stimulated with lipopolysaccharide (LPS) were evaluated.
J774A.1 cells (mouse macrophage cell line) were cultured in Dulbecco's Modified Eagle Medium (DMEM: GIBCO, Inc.) containing 10% fetal bovine serum and subjected to the experiment. The cells were disseminated in 96-well plate in a ratio of 5×10^4 cells/well and a DMEM medium containing the test substance and a DMEM medium containing LPS as a stimulant were added and incubated for 24 hours. The concentration was adjusted so that the final concentrations of the test substances and stimulants were 1 to 30 μM for Compound (I), 1 to 3 μM for KN-93 and 1 μg/ml for LPS. The plate was centrifuged after incubation and the supernatant was collected with micropipette. The concentration of IL-6 in the supernatant was quantified by Enzyme-linked Immunosorbent Assay (ELISA) method. The quantitative method was carried out in accordance with the instructions attached to the kit (MOUSE IL-6 Immunoassay, R & D Systems).

[2] = system: IκBα; assay: Degradation of IκBα in stimulated T-lymphocytes (Western blotting); assay type: cell-based, mouse; conditions: Compound (I) 30 μM, KN-93 10 μM; EL-4 cells; FIG. 17
Description: Effects of Compound (I) and KN-93 on the degradation of IκBα when T-lymphocytes were stimulated with Phorbol 12-myristate 13-acetate (PMA) and Calcium Ionophore A23187 were evaluated.
EL-4 cells (mouse T-lymphocyte cell line) were cultured in Dulbecco's Modified Eagle Medium (DMEM: GIBCO, Inc.) containing 10% fetal bovine serum and subjected to the experiments. Cells subconfluently multiplied were collected by centrifugation and dispensed into Eppendorf tubes to be contained at 5×10^6 cells/tube. After Compound (I) (final 30 μM) or KN-93 (final 10 μM) was added and preincubated at 37° C. in a water bath, stimulation by PMA (final 125 ng/ml) and A23187 (final 1 μg/ml) was performed (total volume 500 μl). After incubated for 15 minutes or 30 minutes after the stimulation, 1 ml of an ice cold stop solution (1×PBS, 1 mM Na3VO4, 5 mM EDTA) was added to terminate the reaction. After centrifugation and rinsing, it was dissolved in TNE buffer (50 mMTris-HCl, 1% NP-40, 20 mM EDTA, 100 μg/ml PMSF, 30 μl/ml Aprotinin, 1 mM Na3VO4, 5 mM NaF, 12 mM β-glycerophosphate). After performing 12% SDS-PAGE, proteins were transferred onto a PVDF membrane and western blotting was performed with anti-IκBα antibody (C-21, Santa Cruz, Inc.).

[3] = system: human CaMKII γ; assay: Examination of CaMKII inhibitory activity (2); assay type: biochemical
Description: Test substances were dissolved in DMSO and diluted to various concentrations with a buffer solution (50 mM Tris-HCl: pH 7.5, 10 mM MgCl2, 1 mM Dithiothreitol (DTT)) (all of them are available from Nacalai Tesque, Inc.) for CaMKII reaction. CaMKIIα (final concentration 0.75 μg/ml) (Santa Cruz, Inc.) derived from rat was mixed with Autocamtide-2® (40 μM) (CALBIOCHEM Company) dissolved in CaMKII reaction buffer solution in the presence of the test substance and with CaMKII activation buffer solution (1 mMCaCl2, 1 μM calmodulin) (Nacalai Tesque, Inc.) and the reaction was started by further adding ATP (50 μM) (Nacalai Tesque, Inc.). The reaction was performed at 30° C. for five minutes and then SDS-PAGE sample buffer solution was added and the reaction was terminated by boiling for five minutes. Proteins in the reaction mixture were separated by 15% SDS-PAGE and blotted onto a PVDF membrane. Phosphorus taken in by Autocamtide-2 was reacted with an anti-phosphorylated serine/threonine antibody (Santa Cruz, Inc.) and quantified by ECL system (Amersham, Inc.) and NIH Image (downloadable from http://rsb.info.nih.gov/nih-image/).
CaMKII γ gene was prepared by PCR method using two kinds of primers (5′-TC GGATCCAGCATGGCCACCACCGCCACCTG-3′ [SEQ ID NO 4] and 5′-TA GAATTCACACTGCAGCGGTGCGGCAGG [SEQ ID NO 5]) synthesized based on the sequence of GenBank Accession No. L07044 and cDNA derived from cultured cells (JurketT cells) prepared by a conventional method as a template. The CaMKII γ gene was excised by BamHI and EcoRI and introduced into the MCS of pFastBacl transfer vector. Expression virus was prepared and amplified based on this vector. The details followed the manual of Bac-to-Bac baculovirus expression system (Invitrogen, Inc.). Expressed CaMKII γ was purified in accordance with the method described in literature (Biochemical & Biophysical Research Communications, 173(2): 578-84, 1990). That is, expression cells were pulverized by supersonic wave and preparation was performed by affinity refinement with calmodulin sepharose (Amasham Biosciences, Inc.) from cell soluble fraction obtained by centrifugal operation via ammonium sulfate fraction of final concentration of 60%. Confirmation of expression was performed by Western blotting method using anti-CaMKII γ specific antibody, sc1541 (Santa Cruz, Inc.).
CaMKII γ inhibitory activity of test substances were measured in the same conditions as in Example 1 except human CaMKII γ prepared by the above procedure was used in place of CaMKII α derived from rat.

[4] = system: L929 cells; assay: Proliferation of fibroblasts stimulated with bFGF (Brd-U uptake); assay type: cell-based, mouse; conditions: Compound (I) 0.3 to 10 μM, KN-93 1 to 30 μM; FIG. 3
Description: Effects of Compound (I) and KN-93 on the proliferation of fibroblasts when the fibroblasts were stimulated with basic fibroblast growth factor (bFGF) were evaluated.
L929 cells (mouse fibroblast cell line) were cultured in MEM-Earl medium (E-MEM: GIBCO, Inc.) containing 10% fetal bovine serum and subjected to the experiment. The cells were suspended in a serum-free E-MEM and disseminated in 96-well plate in a ratio of 2×10^4 cells/well and incubated for 72 hours. An E-MEM medium containing the test substance was added and incubated for 1 hour, and an E-MEM medium containing recombinant human FGF basic (bFGF) as a stimulant was added and incubated for 20 hours. 5-Bromo2′-deoxyuridine (Brd-U) solution was added to each well and incubated at 37° C. for further four hours. The cells were fixed and uptake of Brd-U was detected by Cell proliferation ELISA system (Amersham) and absorbance at 450 nm was measured with a microplate reader. This value of absorbance was used as an index of cell proliferation.

SMILES | production of IL-6 [1] | degradation of IκBα [2] | concentration with an effect of inhibiting the activity of CaMKII [3] [µM] | Inhibition rate (%) ([3]; Concentration 1 μm) | Inhibition rate (%) ([3]; Concentration 10 μm) | Inhibition rate (%) ([3]; Concentration 30 μm) | proliferation of fibroblasts [4]
C[C@@H](c1ccc(-c2ccccc2)c(F)c1)c1cc(/N=C(/N)N2CCOCC2)on1 [Compound (I), 3-[(1S)-1-(2-fluorobiphenyl-4-yl)ethyl]-5-{[amino(morpholin-4-yl)methylene]amino}isoxazole] | suppressed production of IL-6 dose-dependently | suppressed the degradation of IκBα | ≥ 10 | 7 | 33 | 57 | dose-dependently suppressed the proliferation of fibroblasts
COc1ccc(S(=O)(=O)N(CCO)c2ccccc2CN(C)C/C=C/c2ccc(Cl)cc2)cc1 [KN-93, N-(2-[N-[4-chlorocinnamyl]-N-methylaminomethyl]phenyl)-N-(2-hydroxyethyl)-4-methoxybenzenesulfonamide, reference compound] | suppressed production of IL-6 dose-dependently | suppressed the degradation of IκBα | ≥ 1 | 27 | 101 | 107 | dose-dependently suppressed the proliferation of fibroblasts
